# From patent US12215106B2, “Pharmaceutical compounds and therapeutic methods” (RUTGERS, THE STATE UNIVERSITY OF NEW JERSEY, priority 2018, dated 2025)
# Counter-ions that a name gives are not always drawn.
# Columns and labels:
# in vitro = conditions: pH 7.4; for % Remaining at 60 min (Buffer) / % Remaining at 60 min (+NADPH) / % Remaining at 60 min (−NADPH) / Percentage turnover in MLM (percent remaining), 60 min: 1 h; for % Remaining at 60 min (Buffer) / CLh, int / Percentage turnover in MLM (percent remaining), 0 min / Percentage turnover in MLM (percent remaining), 5 min / Percentage turnover in MLM (percent remaining), 15 min / Percentage turnover in MLM (percent remaining), 30 min / % Remaining at 60 min (+NADPH) / % Remaining at 60 min (−NADPH) / Percentage turnover in MLM (percent remaining), 60 min / Metabolic stability in liver microsomes, compound remaining: 1 μM; for CLh, int / Percentage turnover in MLM (percent remaining), 0 min / Percentage turnover in MLM (percent remaining), 5 min / Percentage turnover in MLM (percent remaining), 15 min / Percentage turnover in MLM (percent remaining), 30 min / % Remaining at 60 min (+NADPH) / % Remaining at 60 min (−NADPH) / Percentage turnover in MLM (percent remaining), 60 min / Metabolic stability in liver microsomes, compound remaining / half-life at 1 μM: mouse; for Percentage turnover in MLM (percent remaining), 0 min / Percentage turnover in MLM (percent remaining), 5 min / Percentage turnover in MLM (percent remaining), 15 min / Percentage turnover in MLM (percent remaining), 30 min / % Remaining at 60 min (+NADPH) / % Remaining at 60 min (−NADPH) / Percentage turnover in MLM (percent remaining), 60 min / Metabolic stability in liver microsomes, compound remaining / half-life at 1 μM: microsomes; for Percentage turnover in MLM (percent remaining), 0 min: 0 h; for Percentage turnover in MLM (percent remaining), 15 min: 0.25 h; for Percentage turnover in MLM (percent remaining), 30 min: 0.5 h; for Metabolic stability in liver microsomes, compound remaining: 60 min
# Protocol: The objective of the study was to evaluate the metabolic stability of test compounds in liver microsomes from mice (MLM). This was accomplished by incubating test compounds with microsomes and monitoring disappearance with time using LCMS/MS. Imipramine in MLM was run as positive control.
# Potassium phosphate buffer (Kphos) was prepared by adding 0.647 g potassium phosphate monobasic (KH2PO4) and 3.527 g potassium phosphate dibasic (K2HPO4) to 400 mL of Milli-Q water. pH of the buffer was adjusted to 7.4 and volume was made up to 500 mL.
# Stock solutions of test compounds were prepared in DMSO at a concentration of 1 mM.
# From the above mix, 70 μL was added to individual wells of 96 well reaction plates and pre-incubated at 37° C. for 5 min. […] Reactions without NADPH and buffer controls (minus NADPH) at 0 minutes and 60 minutes were also incubated to rule out non-NADPH metabolism or chemical instability in the incubation buffer. All reactions were terminated using 100 μL of ice-cold acetonitrile containing internal standard (glipizide) at 0, 5, 15, 30 and 60 minutes.
# Samples were monitored for parent compounds disappearance in MRM mode using LC-MS/MS.
# The percent remaining of test compounds and positive control in each sample was determined by considering peak area ratio in the 0 minute sample as 100%.
# In vitro intrinsic clearance (CL'int) (units in mL/min/kg) was also calculated.
# Caco-2 cells = experiment: Bi-directional Caco-2 transport assay; type: in vitro ADME; conditions: for Papp (A-B) / Papp (B-A) / Efflux Ratio (B-A/A-B): human, Caco-2, 90 min, 5 μM; for Papp (A-B) / Papp (B-A): pH 7.4; for P-gp substrate: Caco-2
# Protocol: The objective of the study is to evaluate test compounds as substrates for efflux transporter using Caco-2 cell line. To assess the functionality of P-glycoprotein (P-gp), loperamide was run as a positive control (Apical and basolateral HBSS pH 7.4).
# 5 mM DMSO stock of test compounds and loperamide was diluted 1000-folds in HBSS having 0.1% DMSO to prepare concentrations of 5 μM.
# Caco-2 cells were grown in DMEM (20% FBS) until 85-90% confluence. After attaining required confluence, cells were trypsinized and seeded into 24 well millcell plates at a density of 0.6×10^5 cells/insert. The plates were maintained for 21 days at 37° C. in CO2 incubator with change of medium every alternative day. Monolayer integrity was monitored by measuring Trans-epithelial electrical resistance (TEER) from day 15.
# Caco-2 cell monolayer was washed twice with HBSS and incubated for 40 min in CO2 incubator. TEER values were measured and wells showing TEER values above 230 ohms·cm^2 were taken for experiments. The study was performed in loperamide and test compounds by adding 400 μL of loperamide prepared in HBSS in apical (A-B transport) followed by addition of 800 μL of HBSS on basal side and for B-A transport 800 μL of loperamide prepared in HBSS was dosed in basal followed by addition of 400 μL HBSS on apical side. At selected time points (0, 15, 30, 60 and 90 mins) an aliquot of 50 μL was collected from the receiver compartment for determination of test compound concentrations. The volume withdrawn was replaced immediately with HBSS buffer. TEER was measured at the end to the experiment to confirm any damage of monolayer while performing experiment. Those wells with TEER not meeting the criteria were excluded from the study.
# A 50 μL of test compound samples collected at respective time points and submitted for LC-MS/MS analysis.
# The apparent permeability (Papp) (A−B & B−A) of test compounds and positive control was calculated using the following formula: Papp=dQ/dt/A·Co where, dQ/dt=linear slope of test compound concentration in receptor chamber with time (0, 15, 30, 60 and 90 min) after correcting for dilution; A=area of the filter (0.7 cm^2); and Co=initial concentration of compound in the donor compartment.
# Efflux ratio (RE) was calculated using the following equation: RE=PB/A/PA/B where PB/A and PA/B represent the apparent permeability of test compound from the basal to apical and apical to basal side of cell monolayer.
# Recovery represents: (amount of the compound recovered from donor at end of incubation+cumulative amount of compound in acceptor at end of incubation+amount of the compound in cell lysate or assay well)/amount of compound in donor solution at time zero*100
# Compounds are classified based on Papp values as follows:
# A compound having efflux ratio of >2 is considered as having potential as a P-gp substrate.
SMILES,% Remaining at 60 min (Buffer) (in vitro) [%],"CLh, int (in vitro) [mL/min/kg]","Percentage turnover in MLM (percent remaining), 0 min (in vitro) [%]","Percentage turnover in MLM (percent remaining), 5 min (in vitro) [%]","Percentage turnover in MLM (percent remaining), 15 min (in vitro) [%]","Percentage turnover in MLM (percent remaining), 30 min (in vitro) [%]",% Remaining at 60 min (+NADPH) (in vitro) [%],% Remaining at 60 min (−NADPH) (in vitro) [%],"Percentage turnover in MLM (percent remaining), 60 min (in vitro) [%]","Metabolic stability in liver microsomes, compound remaining (in vitro) [%]",half-life at 1 μM (in vitro) [min],Papp (A-B) (Caco-2 cells),Papp (B-A) (Caco-2 cells),P-gp substrate (Caco-2 cells),Efflux Ratio (B-A/A-B) (Caco-2 cells)
"[2H]C([2H])([2H])Oc1ccc(Nc2nc(-c3c(C)nc4ccccn34)cs2)cc1 [Compound 15, N-(4-(methoxy-d3)phenyl)-4-(2-methylimidazo[1,2-c]pyridin-3-yl)thiazol-2-amine hydrochloride]",85,215,100,100,98,67,48,93,48,< 50,52,0.0 ± 0.0 10^−6 cm/sec,0.0 ± 0.0 10^−6 cm/sec,–,–
"COc1c(F)cc(Nc2nc(-c3c(C)nc4ccccn34)cs2)cc1F [Compound 14, hydrochloride]",66,550,100,88,62,36,13,33,13,< 50,20,0.0 ± 0.0 10^−6 cm/sec,0.0 ± 0.0 10^−6 cm/sec,–,–
"[2H]C1([2H])Oc2ccc(Nc3nc(-c4c(C)nc5ccccn45)cs3)cc2O1 [Compound 17, N-(benzo[d][1,3]dioxol-5-yl-2,2-d2)-4-(2-methylimidazo[1,2-c]pyridin-3-yl)thiazol-2-amine hydrochloride]",101,953,100,91,56,20,3,81,3,< 50,12,–,–,not P-gp substrate,1.3
"Cc1nc2ccccn2c1-c1csc(Nc2ccc3c(c2)OC(F)(F)O3)n1 [Compound 16, N-(2,2-difluorobenzo[d][1,3]dioxol-5-yl)-4-(2-methylimidazo[1,2-a]pyridin-3-yl)thiazol-2-amine hydrochloride]",87,759,100,83,58,35,6,62,6,< 50,15,–,–,not P-gp substrate,0.9
